Source: patent US11208405B2, “Pyrrole derivatives as PLK1 inhibitors” (SENTINEL ONCOLOGY LIMITED, priority 2017, dated 2021)
Where a name gives a salt, the structure may show the parent alone.

What was measured:
cytochrome P450 1A = test: Cytochrome P450 inhibition, 1A; type: in vitro ADME
HCT116 xenograft tumours = test: In vivo anti-cancer activity in mice bearing HCT116 tumours; details: oral 50 mg/kg or 200 m/kg on days 1, 3, 7, 10 and 13, dose of the T/C value not stated
Procedure: In Vivo Anti-Cancer Activity in Mice Bearing HCT116 Tumours
Mice bearing HCT116 xenograft tumours were give oral dosages of either 50 mg/kg or […] on days 1, 3, 7, 10 and 13 and the tumour volumes measured at days 1, 3, 5, 8, 10, 12 and 15. Tumour volumes in a control group of tumour-bearing mice, who had received vehicle only at the same time points were also measured.

phospho-histone H3 = test: Western blotting of tumours 24 hours after a single dose; type: in vivo; details: mice with established tumours
Procedure: In a separate experiment, eight mice with established tumours were treated with the compound of Example 33 and euthanised 24 hours after administration of a single dose.

[1] = system: glioblastoma cell line 908145; test: Glioblastoma cancer cell viability, cell line 908145; type: cell-based
Procedure: (§1) Assay to Measure the Effects of Compounds of the Invention on Glioblastoma Cancer Cell Viability
(§2) The compound of Example 33 was tested for inhibitory activity against the glioblastoma cell lines in Table 7 below.

[2] = system: glioblastoma cell line 909905; test: Glioblastoma cancer cell viability, cell line 909905; type: cell-based
Procedure: as §1, §2

[3] = system: glioblastoma cell line 1240170; test: Glioblastoma cancer cell viability, cell line 1240170; type: cell-based
Procedure: as §1, §2

[4] = system: glioblastoma cell line 906746; test: Glioblastoma cancer cell viability, cell line 906746; type: cell-based
Procedure: as §1, §2

[5] = system: glioblastoma cell line 909750; test: Glioblastoma cancer cell viability, cell line 909750; type: cell-based
Procedure: as §1, §2

[6] = system: glioblastoma cell line 907313; test: Glioblastoma cancer cell viability, cell line 907313; type: cell-based
Procedure: as §1, §2

[7] = system: glioblastoma cell line 909745; test: Glioblastoma cancer cell viability, cell line 909745; type: cell-based
Procedure: as §1, §2

[8] = system: glioblastoma cell line 946370; test: Glioblastoma cancer cell viability, cell line 946370; type: cell-based
Procedure: as §1, §2

AAK1 = target: T1, AAK1 (Homo sapiens, UniProt Q2M2I8); test: Kinase selectivity assay (DiscoverX KinomeScreen), AAK1; type: binding; details: AAK1, 5 μM; read-out: % Control
T1 construct: purchased DiscoverX
Procedure: (§3) The compound of Example 33 was tested for off-target activity against a panel of fifty five kinases bearing functional or structural similarity to PLK1 at a concentration of 5 μM using the DiscoverX KinomeScreen assay.

AURKB = target: T2, AURKB (Homo sapiens, UniProt Q96GD4); test: Kinase selectivity assay (DiscoverX KinomeScreen), AURKB; type: binding; details: read-out: % Control
T2 construct: purchased DiscoverX
T2 sequence (Q96GD4 whole entry): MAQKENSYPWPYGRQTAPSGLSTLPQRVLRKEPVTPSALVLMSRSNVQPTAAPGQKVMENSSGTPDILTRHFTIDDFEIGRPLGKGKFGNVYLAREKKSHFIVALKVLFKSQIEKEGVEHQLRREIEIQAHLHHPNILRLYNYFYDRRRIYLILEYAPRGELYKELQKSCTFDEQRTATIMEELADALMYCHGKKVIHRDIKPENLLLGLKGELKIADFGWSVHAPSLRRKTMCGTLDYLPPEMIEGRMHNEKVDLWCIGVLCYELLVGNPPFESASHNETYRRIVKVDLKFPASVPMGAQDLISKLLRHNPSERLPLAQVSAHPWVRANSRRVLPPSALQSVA
Procedure: as §3

BMP2K = target: T3, BMP2K (Homo sapiens, UniProt Q9NSY1); test: Kinase selectivity assay (DiscoverX KinomeScreen), BMP2K; type: binding; details: read-out: % Control
T3 construct: purchased DiscoverX
T3 sequence (Q9NSY1 whole entry): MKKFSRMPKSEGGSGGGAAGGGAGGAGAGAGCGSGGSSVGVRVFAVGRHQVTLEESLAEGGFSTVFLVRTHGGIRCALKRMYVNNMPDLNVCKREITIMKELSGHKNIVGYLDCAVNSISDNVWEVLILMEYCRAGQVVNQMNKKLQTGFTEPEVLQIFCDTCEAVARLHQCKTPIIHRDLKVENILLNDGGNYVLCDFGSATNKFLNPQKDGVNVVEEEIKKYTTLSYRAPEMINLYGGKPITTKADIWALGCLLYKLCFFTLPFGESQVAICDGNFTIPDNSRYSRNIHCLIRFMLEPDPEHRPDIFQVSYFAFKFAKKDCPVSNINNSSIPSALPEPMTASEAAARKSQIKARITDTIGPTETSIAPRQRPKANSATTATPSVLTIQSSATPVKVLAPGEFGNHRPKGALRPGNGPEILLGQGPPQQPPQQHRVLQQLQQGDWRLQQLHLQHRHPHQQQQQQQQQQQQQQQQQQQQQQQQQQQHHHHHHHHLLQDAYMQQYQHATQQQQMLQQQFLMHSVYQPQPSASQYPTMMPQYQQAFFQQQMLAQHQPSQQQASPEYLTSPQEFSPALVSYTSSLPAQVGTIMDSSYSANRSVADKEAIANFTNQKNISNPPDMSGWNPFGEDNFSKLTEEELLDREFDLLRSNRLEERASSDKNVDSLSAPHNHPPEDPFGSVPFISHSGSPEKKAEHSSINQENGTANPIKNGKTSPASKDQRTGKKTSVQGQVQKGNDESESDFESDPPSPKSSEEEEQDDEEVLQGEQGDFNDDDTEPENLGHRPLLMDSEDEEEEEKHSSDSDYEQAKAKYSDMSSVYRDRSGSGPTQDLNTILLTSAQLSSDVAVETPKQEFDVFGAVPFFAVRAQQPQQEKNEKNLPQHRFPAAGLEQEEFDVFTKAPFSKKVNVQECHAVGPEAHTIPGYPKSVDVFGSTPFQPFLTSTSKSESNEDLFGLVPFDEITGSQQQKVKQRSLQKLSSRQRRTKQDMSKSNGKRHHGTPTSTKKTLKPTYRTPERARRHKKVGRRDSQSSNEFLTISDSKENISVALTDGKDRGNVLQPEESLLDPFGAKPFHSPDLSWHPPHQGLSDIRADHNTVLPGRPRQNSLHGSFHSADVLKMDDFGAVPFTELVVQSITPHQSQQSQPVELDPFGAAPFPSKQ
Procedure: as §3

CAMKK1 = target: T4, CAMKK1 (Homo sapiens, UniProt Q8N5S9); test: Kinase selectivity assay (DiscoverX KinomeScreen), CAMKK1; type: binding; details: CAMKK1, 5 μM; read-out: % Control
T4 construct: purchased DiscoverX
Procedure: as §3

CSNK2A1 = target: T5, CSNK2A1 (Homo sapiens, UniProt P68400); test: Kinase selectivity assay (DiscoverX KinomeScreen), CSNK2A1; type: binding; details: CSNK2A1, 5 μM; read-out: % Control
T5 construct: purchased DiscoverX
Procedure: as §3

CSNK2A2 = target: T6, CSNK2A2 (Homo sapiens, UniProt P19784); test: Kinase selectivity assay (DiscoverX KinomeScreen), CSNK2A2; type: binding; details: CSNK2A2, 5 μM; read-out: % Control
T6 construct: purchased DiscoverX
T6 sequence (P19784 whole entry): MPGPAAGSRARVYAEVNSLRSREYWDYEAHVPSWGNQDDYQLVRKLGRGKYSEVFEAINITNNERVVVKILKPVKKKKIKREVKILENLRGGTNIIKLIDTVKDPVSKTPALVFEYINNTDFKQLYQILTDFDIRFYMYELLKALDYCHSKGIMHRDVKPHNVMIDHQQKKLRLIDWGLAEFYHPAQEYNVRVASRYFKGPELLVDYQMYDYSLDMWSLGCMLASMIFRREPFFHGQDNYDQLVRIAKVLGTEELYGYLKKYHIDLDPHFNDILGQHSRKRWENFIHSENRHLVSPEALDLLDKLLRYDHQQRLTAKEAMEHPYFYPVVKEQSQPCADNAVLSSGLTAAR
Procedure: as §3

EIF2AK1 = target: T7, EIF2AK1 (Homo sapiens, UniProt Q9BQI3); test: Kinase selectivity assay (DiscoverX KinomeScreen), EIF2AK1; type: binding; details: EIF2AK1, 5 μM; read-out: % Control
T7 construct: purchased DiscoverX
Procedure: as §3

GAK = target: T8, GAK (Homo sapiens, UniProt O14976); test: Kinase selectivity assay (DiscoverX KinomeScreen), GAK; type: binding; details: read-out: % Control
T8 construct: purchased DiscoverX
Procedure: as §3

CHUK = target: T9, CHUK (Homo sapiens, UniProt O15111); test: Kinase selectivity assay (DiscoverX KinomeScreen), CHUK; type: binding; details: read-out: % Control
T9 construct: purchased DiscoverX
T9 sequence (O15111 whole entry): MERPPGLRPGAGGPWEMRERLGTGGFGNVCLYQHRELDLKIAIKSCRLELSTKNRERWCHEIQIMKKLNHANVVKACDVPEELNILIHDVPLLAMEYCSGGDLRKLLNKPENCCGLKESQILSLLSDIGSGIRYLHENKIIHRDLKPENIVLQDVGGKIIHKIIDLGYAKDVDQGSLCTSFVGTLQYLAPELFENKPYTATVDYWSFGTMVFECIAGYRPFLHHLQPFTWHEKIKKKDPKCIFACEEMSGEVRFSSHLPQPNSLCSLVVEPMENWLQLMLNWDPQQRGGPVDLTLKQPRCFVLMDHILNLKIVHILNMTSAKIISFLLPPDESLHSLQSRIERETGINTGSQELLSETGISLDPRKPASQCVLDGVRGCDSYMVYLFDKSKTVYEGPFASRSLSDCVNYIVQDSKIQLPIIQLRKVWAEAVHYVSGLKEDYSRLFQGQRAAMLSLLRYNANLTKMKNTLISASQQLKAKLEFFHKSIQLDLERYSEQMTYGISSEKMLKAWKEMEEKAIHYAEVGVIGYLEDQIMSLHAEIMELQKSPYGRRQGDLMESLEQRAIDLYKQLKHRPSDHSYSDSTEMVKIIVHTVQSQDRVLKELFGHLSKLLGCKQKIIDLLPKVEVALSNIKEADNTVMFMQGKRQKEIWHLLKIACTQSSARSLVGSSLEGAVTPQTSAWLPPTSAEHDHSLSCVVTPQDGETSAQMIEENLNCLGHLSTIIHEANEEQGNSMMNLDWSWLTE
Procedure: as §3

NEK10 = target: T10, NEK10 (Homo sapiens, UniProt Q6ZWH5); test: Kinase selectivity assay (DiscoverX KinomeScreen), NEK10; type: binding; details: NEK10, 5 μM; read-out: % Control
T10 construct: purchased DiscoverX
Procedure: as §3

NEK2 = target: T11, NEK2 (Homo sapiens, UniProt P51955); test: Kinase selectivity assay (DiscoverX KinomeScreen), NEK2; type: binding; details: NEK2, 5 μM; read-out: % Control
T11 construct: purchased DiscoverX
Procedure: as §3

NEK4 = target: T12, NEK4 (Homo sapiens, UniProt P51957); test: Kinase selectivity assay (DiscoverX KinomeScreen), NEK4; type: binding; details: NEK4, 5 μM; read-out: % Control
T12 construct: purchased DiscoverX
T12 sequence (P51957 whole entry): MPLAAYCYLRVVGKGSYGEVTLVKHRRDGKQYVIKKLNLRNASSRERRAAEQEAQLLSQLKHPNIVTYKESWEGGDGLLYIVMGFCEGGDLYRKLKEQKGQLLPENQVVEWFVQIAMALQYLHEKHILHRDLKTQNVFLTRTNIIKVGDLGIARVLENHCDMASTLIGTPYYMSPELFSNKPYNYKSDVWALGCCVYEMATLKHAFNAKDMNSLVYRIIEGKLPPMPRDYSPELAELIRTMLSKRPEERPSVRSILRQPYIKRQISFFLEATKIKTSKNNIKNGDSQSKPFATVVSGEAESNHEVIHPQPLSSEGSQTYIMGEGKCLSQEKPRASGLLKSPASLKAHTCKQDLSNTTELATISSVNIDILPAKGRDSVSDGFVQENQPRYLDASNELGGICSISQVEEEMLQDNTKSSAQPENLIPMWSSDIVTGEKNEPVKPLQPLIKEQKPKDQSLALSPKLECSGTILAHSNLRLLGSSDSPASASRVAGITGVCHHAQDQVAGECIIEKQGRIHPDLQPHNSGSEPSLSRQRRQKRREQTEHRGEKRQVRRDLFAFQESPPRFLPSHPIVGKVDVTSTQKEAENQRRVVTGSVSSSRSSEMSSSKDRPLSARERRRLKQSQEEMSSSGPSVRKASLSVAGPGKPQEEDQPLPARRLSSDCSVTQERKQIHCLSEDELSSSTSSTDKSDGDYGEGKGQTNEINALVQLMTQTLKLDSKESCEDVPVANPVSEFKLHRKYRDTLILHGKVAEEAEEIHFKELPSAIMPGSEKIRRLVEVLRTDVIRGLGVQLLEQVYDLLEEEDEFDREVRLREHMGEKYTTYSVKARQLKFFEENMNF
Procedure: as §3

NEK5 = target: T13, NEK5 (Homo sapiens, UniProt Q6P3R8); test: Kinase selectivity assay (DiscoverX KinomeScreen), NEK5; type: binding; details: NEK5, 5 μM; read-out: % Control
T13 construct: purchased DiscoverX
Procedure: as §3

NEK6 = target: T14, NEK6 (Homo sapiens, UniProt Q9HC98); test: Kinase selectivity assay (DiscoverX KinomeScreen), NEK6; type: binding; details: NEK6, 5 μM; read-out: % Control
T14 construct: purchased DiscoverX
T14 sequence (Q9HC98 whole entry): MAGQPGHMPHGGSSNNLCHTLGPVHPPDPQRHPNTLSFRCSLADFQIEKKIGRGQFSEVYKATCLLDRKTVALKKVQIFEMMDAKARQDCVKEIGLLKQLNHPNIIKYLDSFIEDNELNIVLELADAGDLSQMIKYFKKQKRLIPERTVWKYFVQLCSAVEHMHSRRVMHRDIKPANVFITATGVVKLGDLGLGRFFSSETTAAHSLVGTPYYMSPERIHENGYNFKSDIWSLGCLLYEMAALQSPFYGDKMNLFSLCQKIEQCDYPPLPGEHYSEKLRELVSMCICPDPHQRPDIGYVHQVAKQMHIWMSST
Procedure: as §3

PLK1 = target: T15, PLK1 (Homo sapiens, UniProt P53350); test: Kinase selectivity assay (DiscoverX KinomeScreen), PLK1; type: binding; details: PLK1, 5 μM; read-out: % Control
T15 construct: purchased DiscoverX
T15 sequence (P53350 whole entry): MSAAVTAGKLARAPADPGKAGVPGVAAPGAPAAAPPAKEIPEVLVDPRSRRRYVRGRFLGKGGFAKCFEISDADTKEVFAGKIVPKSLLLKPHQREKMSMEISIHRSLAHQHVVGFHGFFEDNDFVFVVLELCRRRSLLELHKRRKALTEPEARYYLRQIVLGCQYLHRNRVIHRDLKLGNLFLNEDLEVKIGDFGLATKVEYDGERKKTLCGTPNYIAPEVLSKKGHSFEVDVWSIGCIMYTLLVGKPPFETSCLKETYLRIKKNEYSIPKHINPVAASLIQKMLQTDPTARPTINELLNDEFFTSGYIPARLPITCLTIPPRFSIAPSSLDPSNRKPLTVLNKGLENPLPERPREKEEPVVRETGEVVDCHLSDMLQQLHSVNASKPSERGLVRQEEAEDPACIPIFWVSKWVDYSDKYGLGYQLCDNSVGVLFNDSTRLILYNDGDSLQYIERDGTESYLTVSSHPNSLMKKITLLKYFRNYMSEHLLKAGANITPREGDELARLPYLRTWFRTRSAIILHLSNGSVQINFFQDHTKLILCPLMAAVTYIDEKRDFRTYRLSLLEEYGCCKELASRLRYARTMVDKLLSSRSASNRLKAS
Procedure: as §3

PLK2 = target: T16, PLK2 (Homo sapiens, UniProt Q9NYY3); test: Kinase selectivity assay (DiscoverX KinomeScreen), PLK2; type: binding; details: PLK2, 5 μM; read-out: % Control
T16 construct: purchased DiscoverX
Procedure: as §3

PLK3 = target: T17, PLK3 (Homo sapiens, UniProt Q9H4B4); test: Kinase selectivity assay (DiscoverX KinomeScreen), PLK3; type: binding; details: PLK3, 5 μM; read-out: % Control
T17 construct: purchased DiscoverX
T17 sequence (Q9H4B4 whole entry): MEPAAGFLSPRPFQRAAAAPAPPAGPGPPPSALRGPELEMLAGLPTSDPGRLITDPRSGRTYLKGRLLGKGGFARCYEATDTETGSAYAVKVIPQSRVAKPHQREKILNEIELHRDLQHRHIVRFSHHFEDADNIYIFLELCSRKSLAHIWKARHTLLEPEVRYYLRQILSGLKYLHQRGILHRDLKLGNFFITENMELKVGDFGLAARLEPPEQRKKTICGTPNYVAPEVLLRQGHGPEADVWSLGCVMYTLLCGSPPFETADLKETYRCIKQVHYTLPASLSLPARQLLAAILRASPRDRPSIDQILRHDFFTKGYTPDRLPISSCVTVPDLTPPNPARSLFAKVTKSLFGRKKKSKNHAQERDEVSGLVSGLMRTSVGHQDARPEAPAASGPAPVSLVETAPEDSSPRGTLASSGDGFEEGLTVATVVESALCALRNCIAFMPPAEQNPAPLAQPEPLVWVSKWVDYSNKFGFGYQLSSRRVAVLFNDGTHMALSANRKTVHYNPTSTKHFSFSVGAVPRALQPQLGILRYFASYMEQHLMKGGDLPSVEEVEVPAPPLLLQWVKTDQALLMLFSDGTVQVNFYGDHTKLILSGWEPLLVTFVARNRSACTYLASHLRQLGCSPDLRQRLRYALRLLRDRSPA
Procedure: as §3

EIF2AK2 = target: T18, EIF2AK2 (Homo sapiens, UniProt P19525); test: Kinase selectivity assay (DiscoverX KinomeScreen), EIF2AK2; type: binding; details: EIF2AK2, 5 μM; read-out: % Control
T18 construct: purchased DiscoverX
Procedure: as §3

ULK2 = target: T19, ULK2 (Homo sapiens, UniProt Q8IYT8); test: Kinase selectivity assay (DiscoverX KinomeScreen), ULK2; type: binding; details: ULK2, 5 μM; read-out: % Control
T19 construct: purchased DiscoverX
Procedure: as §3

WNK1 = target: T20, WNK1 (Homo sapiens, UniProt Q9H4A3); test: Kinase selectivity assay (DiscoverX KinomeScreen), WNK1; type: binding; details: WNK1, 5 μM; read-out: % Control
T20 construct: purchased DiscoverX
Procedure: as §3

WNK3 = target: T21, WNK3 (Homo sapiens, UniProt Q9BYP7); test: Kinase selectivity assay (DiscoverX KinomeScreen), WNK3; type: binding; details: WNK3, 5 μM; read-out: % Control
T21 construct: purchased DiscoverX
Procedure: as §3

CN(C)CCNC(=O)c1ccc(-c2ccc(-c3ccc(Cl)cc3)n2-c2ccccc2C(F)(F)F)cc1 [Example 33, 4-[5-(4-chlorophenyl)-1-[2-(trifluoromethyl)phenyl]pyrrol-2-yl]-N-[2-(dimethylamino)ethyl]benzamide Hydrochloride]
cytochrome P450 inhibition 1A (cytochrome P450 1A): > 10 µM | effect on tumour growth (T/C) (HCT116 xenograft tumours): 48% | phospho-histone H3 in tumours (Western blotting) (phospho-histone H3): clear induction of phospho-histone H3 | IC50 [1]: 223 nM | IC50 [2]: 276 nM | IC50 [3]: 363 nM | IC50 [4]: 430 nM | IC50 [5]: 929 nM | IC50 [6]: 1110 nM | IC50 [7]: 1370 nM | IC50 [8]: 1670 nM | remaining activity at 5 µM (AAK1): 100% | remaining activity at 5 µM (AURKB): 95% | remaining activity at 5 µM (BMP2K): 85% | remaining activity at 5 µM (CAMKK1): 91% | remaining activity at 5 µM (CSNK2A1): 96% | remaining activity at 5 µM (CSNK2A2): 92% | remaining activity at 5 µM (EIF2AK1): 98% | remaining activity at 5 µM (GAK): 100% | remaining activity at 5 µM (CHUK): 100% | remaining activity at 5 µM (NEK10): 94% | remaining activity at 5 µM (NEK2): 94% | remaining activity at 5 µM (NEK4): 100% | remaining activity at 5 µM (NEK5): 99% | remaining activity at 5 µM (NEK6): 99% | remaining activity at 5 µM (PLK1): 100% | remaining activity at 5 µM (PLK2): 85% | remaining activity at 5 µM (PLK3): 74% | remaining activity at 5 µM (EIF2AK2): 90% | remaining activity at 5 µM (ULK2): 100% | remaining activity at 5 µM (WNK1): 97% | remaining activity at 5 µM (WNK3): 100%
